Measured values: the NIST ThermoML archive (doi:10.1021/je050052+)
± gives the expanded uncertainty stated by the source.

Assay: excess molar enthalpy (molar enthalpy of mixing); xn = mol fraction of the nth substance listed
Settings: Liquid, Flow calorimetry

With `COC(=O)OC` [dimethyl carbonate] + CCCO the excess molar enthalpy (298.15 K, 1000 kPa, x1 = 0.05) was 0.108 ± 0.00103 kcal/mol, the excess molar enthalpy (298.15 K, 1000 kPa, x1 = 0.1) was 0.2025 ± 0.00174 kcal/mol and the excess molar enthalpy (298.15 K, 1000 kPa, x1 = 0.15) was 0.2782 ± 0.00234 kcal/mol. The excess molar enthalpy (298.15 K, 1000 kPa, x1 = 0.2) was 0.3401 ± 0.00287 kcal/mol, the excess molar enthalpy (298.15 K, 1000 kPa, x1 = 0.25) was 0.3833 ± 0.00311 kcal/mol and the excess molar enthalpy (298.15 K, 1000 kPa, x1 = 0.3) was 0.4194 ± 0.00335 kcal/mol. For the same compound, the excess molar enthalpy (298.15 K, 1000 kPa, x1 = 0.35) was 0.447 ± 0.00359 kcal/mol, the excess molar enthalpy (298.15 K, 1000 kPa, x1 = 0.4) was 0.4608 ± 0.00382 kcal/mol and the excess molar enthalpy (298.15 K, 1000 kPa, x1 = 0.45) was 0.4692 ± 0.00382 kcal/mol. It also gave an excess molar enthalpy (298.15 K, 1000 kPa, x1 = 0.5) of 0.4679 ± 0.00382 kcal/mol, an excess molar enthalpy (298.15 K, 1000 kPa, x1 = 0.55) of 0.4588 ± 0.00382 kcal/mol and an excess molar enthalpy (298.15 K, 1000 kPa, x1 = 0.6) of 0.4437 ± 0.00359 kcal/mol. It also gave an excess molar enthalpy (298.15 K, 1000 kPa, x1 = 0.65) of 0.4199 ± 0.00335 kcal/mol, an excess molar enthalpy (298.15 K, 1000 kPa, x1 = 0.7) of 0.3883 ± 0.00311 kcal/mol and an excess molar enthalpy (298.15 K, 1000 kPa, x1 = 0.75) of 0.3492 ± 0.00287 kcal/mol. It also gave an excess molar enthalpy (298.15 K, 1000 kPa, x1 = 0.8) of 0.2996 ± 0.00239 kcal/mol, an excess molar enthalpy (298.15 K, 1000 kPa, x1 = 0.85) of 0.2396 ± 0.00203 kcal/mol and an excess molar enthalpy (298.15 K, 1000 kPa, x1 = 0.9515) of 0.0831 ± 0.000837 kcal/mol. The excess molar enthalpy (313.15 K, 1000 kPa, x1 = 0.0485) was 0.1015 ± 0.00098 kcal/mol, the excess molar enthalpy (313.15 K, 1000 kPa, x1 = 0.1002) was 0.2101 ± 0.00182 kcal/mol and the excess molar enthalpy (313.15 K, 1000 kPa, x1 = 0.1512) was 0.2976 ± 0.00239 kcal/mol. It also gave an excess molar enthalpy (313.15 K, 1000 kPa, x1 = 0.2017) of 0.3682 ± 0.00311 kcal/mol, an excess molar enthalpy (313.15 K, 1000 kPa, x1 = 0.2516) of 0.4232 ± 0.00335 kcal/mol and an excess molar enthalpy (313.15 K, 1000 kPa, x1 = 0.3009) of 0.4634 ± 0.00382 kcal/mol. It also gave an excess molar enthalpy (313.15 K, 1000 kPa, x1 = 0.3497) of 0.4921 ± 0.00406 kcal/mol, an excess molar enthalpy (313.15 K, 1000 kPa, x1 = 0.4014) of 0.5134 ± 0.00406 kcal/mol and an excess molar enthalpy (313.15 K, 1000 kPa, x1 = 0.449) of 0.5231 ± 0.0043 kcal/mol. The excess molar enthalpy (313.15 K, 1000 kPa, x1 = 0.4995) was 0.5234 ± 0.0043 kcal/mol, the excess molar enthalpy (313.15 K, 1000 kPa, x1 = 0.5494) was 0.5136 ± 0.00406 kcal/mol and the excess molar enthalpy (313.15 K, 1000 kPa, x1 = 0.5987) was 0.4971 ± 0.00406 kcal/mol. The excess molar enthalpy (313.15 K, 1000 kPa, x1 = 0.6506) was 0.4702 ± 0.00382 kcal/mol, the excess molar enthalpy (313.15 K, 1000 kPa, x1 = 0.6988) was 0.4383 ± 0.00359 kcal/mol and the excess molar enthalpy (313.15 K, 1000 kPa, x1 = 0.7495) was 0.3945 ± 0.00335 kcal/mol. For the same compound, the excess molar enthalpy (313.15 K, 1000 kPa, x1 = 0.8491) was 0.2714 ± 0.00229 kcal/mol, the excess molar enthalpy (313.15 K, 1000 kPa, x1 = 0.901) was 0.1899 ± 0.00165 kcal/mol and the excess molar enthalpy (313.15 K, 1000 kPa, x1 = 0.9493) was 0.0957 ± 0.000932 kcal/mol. It also gave an excess molar enthalpy (313.15 K, 10000 kPa, x1 = 0.0482) of 0.1172 ± 0.0011 kcal/mol, an excess molar enthalpy (313.15 K, 10000 kPa, x1 = 0.0996) of 0.2233 ± 0.00191 kcal/mol and an excess molar enthalpy (313.15 K, 10000 kPa, x1 = 0.1504) of 0.3101 ± 0.00263 kcal/mol. The excess molar enthalpy (313.15 K, 10000 kPa, x1 = 0.2007) was 0.3795 ± 0.00311 kcal/mol, the excess molar enthalpy (313.15 K, 10000 kPa, x1 = 0.2505) was 0.4328 ± 0.00359 kcal/mol and the excess molar enthalpy (313.15 K, 10000 kPa, x1 = 0.2997) was 0.4731 ± 0.00382 kcal/mol. The excess molar enthalpy (313.15 K, 10000 kPa, x1 = 0.3483) was 0.502 ± 0.00406 kcal/mol, the excess molar enthalpy (313.15 K, 10000 kPa, x1 = 0.3999) was 0.5218 ± 0.0043 kcal/mol and the excess molar enthalpy (313.15 K, 10000 kPa, x1 = 0.4509) was 0.5315 ± 0.0043 kcal/mol. The excess molar enthalpy (313.15 K, 10000 kPa, x1 = 0.5013) was 0.5316 ± 0.0043 kcal/mol, the excess molar enthalpy (313.15 K, 10000 kPa, x1 = 0.5512) was 0.5228 ± 0.0043 kcal/mol and the excess molar enthalpy (313.15 K, 10000 kPa, x1 = 0.6005) was 0.5047 ± 0.00406 kcal/mol. For the same compound, the excess molar enthalpy (313.15 K, 10000 kPa, x1 = 0.6493) was 0.4798 ± 0.00382 kcal/mol, the excess molar enthalpy (313.15 K, 10000 kPa, x1 = 0.7007) was 0.4413 ± 0.00359 kcal/mol and the excess molar enthalpy (313.15 K, 10000 kPa, x1 = 0.7515) was 0.3942 ± 0.00335 kcal/mol. It also gave an excess molar enthalpy (313.15 K, 10000 kPa, x1 = 0.8514) of 0.2719 ± 0.00229 kcal/mol, an excess molar enthalpy (313.15 K, 10000 kPa, x1 = 0.9005) of 0.1934 ± 0.00167 kcal/mol and an excess molar enthalpy (313.15 K, 10000 kPa, x1 = 0.949) of 0.09892 ± 0.000956 kcal/mol. For the same compound, the excess molar enthalpy (328.15 K, 1000 kPa, x1 = 0.05) was 0.1178 ± 0.0011 kcal/mol, the excess molar enthalpy (328.15 K, 1000 kPa, x1 = 0.1) was 0.2285 ± 0.00196 kcal/mol and the excess molar enthalpy (328.15 K, 1000 kPa, x1 = 0.15) was 0.3207 ± 0.00263 kcal/mol. For the same compound, the excess molar enthalpy (328.15 K, 1000 kPa, x1 = 0.2) was 0.3941 ± 0.00335 kcal/mol, the excess molar enthalpy (328.15 K, 1000 kPa, x1 = 0.25) was 0.4542 ± 0.00359 kcal/mol and the excess molar enthalpy (328.15 K, 1000 kPa, x1 = 0.3) was 0.4986 ± 0.00406 kcal/mol. It also gave an excess molar enthalpy (328.15 K, 1000 kPa, x1 = 0.35) of 0.5304 ± 0.0043 kcal/mol, an excess molar enthalpy (328.15 K, 1000 kPa, x1 = 0.4) of 0.553 ± 0.00454 kcal/mol and an excess molar enthalpy (328.15 K, 1000 kPa, x1 = 0.45) of 0.5666 ± 0.00454 kcal/mol. For the same compound, the excess molar enthalpy (328.15 K, 1000 kPa, x1 = 0.5) was 0.5671 ± 0.00454 kcal/mol, the excess molar enthalpy (328.15 K, 1000 kPa, x1 = 0.55) was 0.5597 ± 0.00454 kcal/mol and the excess molar enthalpy (328.15 K, 1000 kPa, x1 = 0.6) was 0.5432 ± 0.0043 kcal/mol. For the same compound, the excess molar enthalpy (328.15 K, 1000 kPa, x1 = 0.65) was 0.5174 ± 0.0043 kcal/mol, the excess molar enthalpy (328.15 K, 1000 kPa, x1 = 0.7) was 0.4791 ± 0.00382 kcal/mol and the excess molar enthalpy (328.15 K, 1000 kPa, x1 = 0.75) was 0.4296 ± 0.00359 kcal/mol. It also gave an excess molar enthalpy (328.15 K, 1000 kPa, x1 = 0.85) of 0.2956 ± 0.00239 kcal/mol, an excess molar enthalpy (328.15 K, 1000 kPa, x1 = 0.9) of 0.2109 ± 0.00182 kcal/mol and an excess molar enthalpy (328.15 K, 1000 kPa, x1 = 0.95) of 0.1065 ± 0.001 kcal/mol.
